Measured values published in patent US20220057378A1, “MICROBIAL MICROFLUIDIC BIOSENSOR” (priority 2015, published 2022).
Read-outs that look alike come from different tables or passages of the source.

Assays:
B. subtilis 168 = experiment: RNA-Seq after toxin exposure; type: cell-based
Method: (§1) Milestone 2.1: Expose target cells to toxins of interest over four orders of magnitude of concentration and extract RNA: Three strains of bacteria were exposed to relevant levels of all toxins and extracted RNA. The toxin exposure protocol involves first growing a culture of bacterial cells to mid-log phase (OD≤0.2). […] Finally, cellular RNA was stabilized using Qiagen RNA Protect reagent, the cells were centrifuged, and the pellet was frozen at −80° C. To investigate the cellular RNA response to toxin insult, we exposed E. coli MG1655, E. coli LABEC01, and B. subtilis 168 cells to the toxins and concentrations shown in Table 7 and extracted RNA.
We used RNA-Seq to verify the nasB promoter in B. subtilis 168 as a sensitive and specific promoter for the last remaining toxin, ammonium (see FIG. 2). […] This is desirable because, unlike the other water toxins of interest, ammonium is expected to increase the growth rate of biosensor cells. In this situation, a “lights-on” sensor could be triggered by any substance that increases the growth rate and resulting GFP production ability of cells, whereas a “lights-off” sensor remains immune to this effect.

[1] = system: B. subtilis NCIB 3610/Amm3; experiment: 18-strain chip induction; type: cell-based; details: 5 ppm NH4-N, GFP production drops
Excerpt: (§2) In an embodiment herein, the toxin response data across 18 unique sensing strains were also collected using a new chip design that houses 16 E. coli strains and 2 B. subtilis strains. The B. subtilis NCIB 3610/Amm3 construct is a “lights-off” sensor, meaning that GFP production drops when ammonium is introduced, following a slight increase due to faster growth on this preferred nitrogen source. […] By combining these sensor responses, we can identify cobalt by the unique response of Pb7 alone and lead by the unique combination of Zn6, Pb7, and Pb8 responses.

GFP sensor strains = experiment: SVM classification of GFP sensor responses (toxin / no toxin); type: cell-based; details: from classification accuracy and ROC curves
Excerpt: Computational models to determine the threshold of detection for specific sensors based on models of experimental GFP responses. We used machine learning techniques to determine the relationships between the GFP output signal and the presence of a toxin. We have created a database containing the collected sensor response data. We have quantified the GFP threshold of detection for each sensor construct. We have constructed Receiver Operating Characteristic (ROC) curves for each sensor to achieve robust sensing. We constructed machine learning models capable of inferring the relationships between the GFP sensor responses and the presence or absence of a toxin at a given concentration. The algorithm learns these relationships from a set of training samples (GFP sensor responses) defined by the set of experimental conditions from which they were generated. The aim of the algorithm is to provide a general method capable of determining the experimental conditions associated with GFP sensor responses through the use of historical data. Specifically, we have built classification models based on Support Vector Machines (SVMs), which is one of the most popular classifiers due to its excellent performance in many contexts and its solid mathematical basis (1). For each toxin and concentration, we solved a binary classification problem in which the positive class represents the presence of the toxin in water and the negative class is associated with clean environments. Patterns were constructed with features containing GFP sensor responses at various timestamps to capture the temporal dynamics of the GFP signal. The optimal meta-parameters of the SVM classifier were determined by applying a 5-crossvalidation during the training phase (2). In order to have a reliable estimate of the performance of the model when deployed in real environments, we measured its performance over a set of samples (test patterns) not seen during the training phase. The SVM's performance was determined by the percentage of test samples correctly labeled as toxin/no toxin (classification accuracy). 80% of samples were used for training the SVM models and the remaining 20% of samples was used to evaluate their effectiveness. We generated 20 random training/test partitions to have an estimate of performance independent of the data partition.
Specifically, we have built classification models based on Support Vector Machines (SVMs), which is one of the most popular classifiers due to its excellent performance in many contexts and its solid mathematical basis. For each toxin and concentration, we solved a binary classification problem in which the positive class represents the presence of the toxin in water and the negative class is associated with clean environments. Patterns were constructed with features containing GFP sensor responses at various timestamps to capture the temporal dynamics of the GFP signal. The optimal meta-parameters of the SVM classifier were determined by applying a 5-crossvalidation during the training phase.
In order to have a reliable estimate of the performance of the model when deployed in real environments, we measured its performance over a set of samples (test patterns) not seen during the training phase. The SVM's performance was determined by the percentage of test samples correctly labeled as toxin/no toxin (classification accuracy). 80% of samples were used for training the SVM models and the remaining 20% of samples was used to evaluate their effectiveness. We generated 20 random training/test partitions based on data collected in single-strain chips (no crosstalk data) to have an estimate of performance.

cellular esterases = experiment: inhibition of cellular esterase activity (CFDA cleavage) in gill chip; type: cell-based, S. cerevisiae; details: 0.725 g/l malathion; two sequential exposures; recovers subsequently
Method: Additional constructs based on this promoter were generated while collecting on-chip response data for all other sensing strains using the sensor prototypes was performed. […] S. cerevisiae was loaded into a gill chip and CFDA (carboxyfluorescein diacetate) was added to the growth medium. […] Because CFDA breaks down in the medium over time thereby increasing the background signal, fresh medium+CFDA was introduced at 1,500 and 2,000 min. This explains the drift in baseline GFP during this period, which can be eliminated in subsequent experiments by mixing dye and medium on-chip.

Mall construct = experiment: malathion construct loaded into the sensor device; type: cell-based, E. coli; details: prototype sensor
E. coli MG1655 = type: cell-based; details: for Number DE Genes: false discovery rate below 1%
Excerpt: RNA-Seq results for promoter activation in E. coli MG1655 in response to single and multiple toxin exposures at low and high concentrations: Our analysis of the sequencing data from RNA-Seq experiments to determine candidate genes that are induced upon toxin exposure consisted of three main tasks: sequence alignment, quantification of gene expression, and identification of differentially expressed genes. Sequence alignment: Reads were aligned to the reference E. coli K-12 substr. MG1655 genome using a tolerance of at most two mismatches per alignment to protect against sequencing errors. The alignment was performed using Bowtie software, 5 which is known to be very efficient in aligning reads to a reference genome. Without being limiting, Bowtie software 5 can be used for the alignment. Those skilled in the art will appreciate that there are many such software programs for performing alignments.
Quantification of gene expression: The expression level of each gene was determined as a function of the number of aligned reads mapping to the gene. […] Additionally, we implemented our own algorithms for sequence alignment and quantification of gene expression in order to crosscheck all results.
Identification of differentially expressed genes: Finally, a set of statistical and information theory algorithms were applied in order to extract not only differentially expressed (DE) genes for each toxin with respect to the control samples (pure water) but also toxin-specific genes. DESeq is a standard tool for identifying DE genes that allowed us to select sensitive genes with differential expression between the control samples (pure water) and the cells exposed to toxin. It assumes that the number of counts for each gene across experimental replicates follows a negative binomial distribution (8, 9). We considered genes with a False Discovery Rate (FDR) lower than 1% as DE in order to ensure statistically robust DE genes. […] Additionally, genes with the largest number of counts and expression levels are preferable in order to maximize the signal-to-noise ratio. When it is not possible to find toxin-specific genes, the next generation of good candidates is formed by those genes satisfying the above properties for a small subset of toxins (multiple-toxin response). It is desirable to have single-toxin-specific genes for several of the toxins in the combination in order to determine toxin-specific multi-gene-responses by means of logical operations. […] Therefore, we have developed information theoretic measures to improve the toxin separability. The core idea of the approach is that low entropies (or highly informative genes) correspond to toxin-specific genes, while large entropies (low information) are associated with scenarios in which DE fold-changes across different toxins are similar and should be discarded.
as §1
Milestone 2.5: Prepare isolated RNA for Illumina sequencing using vendor provided reagents and carry out sequencing: We have prepared libraries and carried out sequencing for all toxins of interest.

Cr5 = experiment: microplate specificity test with on- and off-target heavy metals (fluorescence); type: cell-based, E. coli; details: on-target = 1, no-toxin control = 0, As 1.3, Cd 0.44, Cr(VI) 2, Cu 20, Pb 1, Hg 0.1, Co 20, Fe 500, Ni 1.7, Zn 7.6 μM
Excerpt: (§3) Each column represents the fluorescence response of a strain to the on-target metal (normalized to “1”) and all off-target metals, where “0” represents the unchanged response for the no-toxin control.
(§4) Although the ability to sense cobalt, iron, nickel, and zinc is of secondary importance, these heavy metals were included as potential off-target inducers because they may be present in the natural water supply under test. […] This combinatorial logic was implemented in algorithms.

As3 = experiment: as above; type: cell-based, E. coli; details: on-target = 1, no-toxin control = 0; As 1.3, Cd 0.44, Cr(VI) 2, Cu 20, Pb 1, Hg 0.1, Co 20, Fe 500, Ni 1.7, Zn 7.6 μM
Excerpt: as §3, §4

Hg3 = experiment: as above; type: cell-based, E. coli; details: on-target = 1, no-toxin control = 0, As 1.3, Cd 0.44, Cr(VI) 2, Cu 20, Pb 1, Hg 0.1, Co 20, Fe 500, Ni 1.7, Zn 7.6 μM
Excerpt: as §3, §4

Cd1 = experiment: as above; type: cell-based, E. coli; details: on-target = 1, no-toxin control = 0; As 1.3, Cd 0.44, Cr(VI) 2, Cu 20, Pb 1, Hg 0.1, Co 20, Fe 500, Ni 1.7, Zn 7.6 μM
Excerpt: as §3, §4

Cu1 = experiment: as above; type: cell-based, E. coli; details: on-target = 1, no-toxin control = 0; As 1.3, Cd 0.44, Cr(VI) 2, Cu 20, Pb 1, Hg 0.1, Co 20, Fe 500, Ni 1.7, Zn 7.6 μM
Excerpt: as §3, §4

Pb2 = experiment: as above; type: cell-based, E. coli; details: on-target = 1, no-toxin control = 0; As 1.3, Cd 0.44, Cr(VI) 2, Cu 20, Pb 1, Hg 0.1, Co 20, Fe 500, Ni 1.7, Zn 7.6 μM
Excerpt: as §3, §4

[2] = system: E. coli MG1655 strains Co2-Co4 and Co6-Co8; experiment: plate reader validation of cobalt-sensing promoters (GFP fluorescence); type: cell-based; details: microplate wells, various concentrations of cobalt
E. coli MG1655/Pb7 = experiment: 18-strain chip induction; type: cell-based
Excerpt: as §2

## Ammonium
B. subtilis 168
  response of the nasB promoter: sensitive and specifically downregulated
[1]
  GFP response of Amm3 strain (lights-off sensor): respond sensitively
GFP sensor strains
  threshold of detection: one

## CCOC(=O)CC(SP(=S)(OC)OC)C(=O)OCC (stereo not shown) [Malathion, malathion]
Cellular esterases
  cell fluorescence (CFDA cleavage by cellular esterases): significantly drops
Mall construct
  response of Mall construct in sensor device: did not produce a discernable response
E. coli MG1655; RNA-Seq mean fold change
  response of the nemR promoter: responds to high concentrations
E. coli MG1655; high concentration
  Number DE Genes: 41
E. coli MG1655; low concentration
  Number DE Genes: 370
GFP sensor strains
  threshold of detection: 72.5 mg/L

## [Fe] [Iron]
Cr5
  fluorescence response of strain Cr5 (on-target chromium(VI)): 0.86
Cr5; listed as iron
  fluorescence response of strain Cr5 (on-target chromium(VI)): sensitive
As3
  fluorescence response of strain As3 (on-target arsenic): −0.06
Hg3
  fluorescence response of strain Hg3 (on-target mercury): −0.38
Cd1
  fluorescence response of strain Cd1 (on-target cadmium): −0.31
Cu1
  fluorescence response of strain Cu1 (on-target copper): 0.17
Pb2
  fluorescence response of strain Pb2 (on-target lead): 0.96
E. coli MG1655; high concentration
  Number DE Genes: 70
E. coli MG1655; low concentration
  Number DE Genes: 32

## [Ni] [Nickel]
Cr5
  fluorescence response of strain Cr5 (on-target chromium(VI)): −0.35
As3
  fluorescence response of strain As3 (on-target arsenic): −0.08
Cd1
  fluorescence response of strain Cd1 (on-target cadmium): −0.08
Cu1
  fluorescence response of strain Cu1 (on-target copper): −0.05
Pb2
  fluorescence response of strain Pb2 (on-target lead): 0.16
E. coli MG1655; high concentration
  Number DE Genes: 95
E. coli MG1655; low concentration
  Number DE Genes: 43

## [Zn] [Zinc]
Cr5
  fluorescence response of strain Cr5 (on-target chromium(VI)): 0.35
As3
  fluorescence response of strain As3 (on-target arsenic): −0.14
Hg3
  fluorescence response of strain Hg3 (on-target mercury): 0.78
Hg3; listed as zinc
  fluorescence response of strain Hg3 (on-target mercury): sensitive
Cd1
  fluorescence response of strain Cd1 (on-target cadmium): −0.09
Cu1
  fluorescence response of strain Cu1 (on-target copper): −0.08
Pb2
  fluorescence response of strain Pb2 (on-target lead): 1.06
E. coli MG1655; RNA-Seq mean fold change
  response of the mntH promoter: high concentrations of zinc alone
  response of the shiA promoter: high concentrations of zinc alone
  response of the yjjZ promoter: responds monotonically to increasing concentrations
  response of the zntA promoter: shows sensitivity to low and high concentrations
  response of the zraP promoter: responds specifically and monotonically to increasing concentrations
E. coli MG1655; high concentration
  Number DE Genes: 596
E. coli MG1655; low concentration
  Number DE Genes: 24

## [Co] [Cobalt]
Cr5
  fluorescence response of strain Cr5 (on-target chromium(VI)): −0.11
As3
  fluorescence response of strain As3 (on-target arsenic): 0.30
Cd1
  fluorescence response of strain Cd1 (on-target cadmium): 0.67
Cu1
  fluorescence response of strain Cu1 (on-target copper): −0.01
Pb2
  fluorescence response of strain Pb2 (on-target lead): 0.80
[2]
  GFP response to cobalt in the growth medium: significantly respond
E. coli MG1655/Pb7
  GFP response of strain Pb7: responds sensitively
E. coli MG1655; RNA-Seq mean fold change
  response of the dadA promoter: specific to cobalt alone
  response of the hmp promoter: specific to cobalt alone
  response of the ilvB promoter: specific to cobalt alone
  response of the lipA promoter: specific to cobalt alone
  response of the mmuP promoter: specific to cobalt alone
  response of the soxR promoter: specific to cobalt alone
  response of the tehA promoter: specific to cobalt alone
  response of the ygbA promoter: specific to cobalt alone
  response of the yjbJ promoter: specific to cobalt alone
  response of the yqfA promoter: specific to cobalt alone
E. coli MG1655; high concentration
  Number DE Genes: 1274
E. coli MG1655; low concentration
  Number DE Genes: 609
